Assay results published in patent US8653100B2 (AbbVie Inc., priority 2008, dated 2014).
pIC50, pKi: −log10 of the molar value. Counter-ions that a name gives are not always drawn. Like-named read-outs stand apart in the source and are kept apart here.

Columns and labels:
[1] = target: human GlyT1c (Homo sapiens (Human), UniProt P48067); assay: [3H]-Glycine uptake into recombinant CHO cells expressing human GlyT1; assay type: cell-based; conditions: hGlyT1c_5_CHO cells, 200 nM [3H]-glycine
Method: [^3H]-Glycine uptake into recombinant CHO cells expressing human GlyT1: Human GlyT1c expressing recombinant hGlyT1c—5_CHO cells were plated at 20,000 cells per well in 96 well Cytostar-T scintillation microplates (Amersham Biosciences) and cultured to sub-confluency for 24 h. […] The plates were placed in a Wallac Microbeta (PerkinElmer) and continuously counted by solid phase scintillation spectrometry during up to 3 hours. […] IC50 calculations were made by four-parametric logistic nonlinear regression analysis (GraphPad Prism) using determinations within the range of linear increase of [^3H]-glycine incorporation between 60 and 120 min.

[2] = target: human GlyT1c transporter (Homo sapiens (Human), UniProt P48067); assay: Radioligand binding assay using recombinant CHO cell membranes expressing human GlyT1; conditions: read-out: radioligand binding Kiapp
Outline: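 Competition binding of [^3H]-(R)-NPTS (0.5 nM) to CHO membranes expressing human GlyT1c (50 μg/ml protein) in pH 7.5 Hepes/NaCl buffer with 1% DMSO, 1 h at room temperature. Non-specific binding defined with 10 μM Org24598; filtration and scintillation counting, one-site fit, Ki via Cheng-Prusoff.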

Chain of human GlyT1c (P48067 whole entry): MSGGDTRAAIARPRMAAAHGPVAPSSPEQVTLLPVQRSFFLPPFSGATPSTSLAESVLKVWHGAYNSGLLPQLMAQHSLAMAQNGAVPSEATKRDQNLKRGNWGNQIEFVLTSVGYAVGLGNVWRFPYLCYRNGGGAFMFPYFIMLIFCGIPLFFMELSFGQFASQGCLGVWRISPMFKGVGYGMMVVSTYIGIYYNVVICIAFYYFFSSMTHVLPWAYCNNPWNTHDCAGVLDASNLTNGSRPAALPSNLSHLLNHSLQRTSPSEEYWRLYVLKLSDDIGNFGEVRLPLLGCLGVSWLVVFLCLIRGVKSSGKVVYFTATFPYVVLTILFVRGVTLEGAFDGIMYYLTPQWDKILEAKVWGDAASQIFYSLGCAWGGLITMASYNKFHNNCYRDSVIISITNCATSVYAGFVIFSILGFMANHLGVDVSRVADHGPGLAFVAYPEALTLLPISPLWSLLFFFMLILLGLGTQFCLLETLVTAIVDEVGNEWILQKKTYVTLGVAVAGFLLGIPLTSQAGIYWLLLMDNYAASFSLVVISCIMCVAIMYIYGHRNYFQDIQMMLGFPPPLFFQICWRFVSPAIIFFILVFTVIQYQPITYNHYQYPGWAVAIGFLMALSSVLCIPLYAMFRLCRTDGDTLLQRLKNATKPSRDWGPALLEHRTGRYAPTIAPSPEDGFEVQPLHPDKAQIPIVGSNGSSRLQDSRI
Chain of human GlyT1c transporter (P48067 whole entry): as above

SMILES | pIC50 [1] | pKi ([2]; examples 88-204, radioligand not specified by footnote) | pKi ([2]; radioligand [3H]-(R)-NPTS (examples 1-19, 22-52, 54-87))
NCCS(=O)(=O)NCCOc1ccc2c(c1)C(C1(c3ccc(Cl)cc3)CCC1)NCC2 (single isomer, unassigned) [Example 152, 2-Amino-N-[2-({1-[1-(4-Chlorophenyl)cyclobutyl]-1,2,3,4-tetrahydroisoquinolin-7-yl}oxy)ethyl]ethanesulfonamide dihydrochloride] | ≥ 5.00 | ≥ 7.00 | 
O=S(=O)(NCCOc1ccc2c(c1)C(C1(c3ccc(Cl)cc3)CCC1)NCC2)c1ccc2ccccc2c1 (stereo not shown) [Example 9, Naphthalene-2-sulfonic acid (2-{1-[1-(4-chloro-phenyl)-cyclobutyl]-1,2,3,4-tetrahydro-isoquinolin-7-yloxy}-ethyl)-amide hydrochloride] | ≥ 5.00 |  | ≥ 5.00
CC(C)S(=O)(=O)NCCOc1ccc2c(c1)C(C1(c3ccc(Cl)cc3)CCC1)NCC2 (stereo not shown) [Example 38, Propane-2-sulfonic acid (2-{1-[1-(4-chloro-phenyl)-cyclobutyl]-1,2,3,4-tetrahydro-isoquinolin-7-yloxy}-ethyl)-amide hydrochloride] | ≥ 7.00 |  | 
CC(C)NC(=O)NCCOc1ccc2c(c1)C(C1(c3ccc(Cl)cc3)CCC1)NCC2 (stereo not shown) [Example 36, 1-(2-{1-[1-(4-Chloro-phenyl)-cyclobutyl]-1,2,3,4-tetrahydro-isoquinolin-7-yloxy}-ethyl)-3-isopropyl-urea hydrochloride] | ≥ 4.00 |  | 
Cc1nn(C)cc1S(=O)(=O)NCCOc1ccc2c(c1)C(C1(c3ccc(Cl)cc3)CCC1)NCC2 (stereo not shown) [Example 35, 1,3-Dimethyl-1H-pyrazole-4-sulfonic acid (2-{1-[1-(4-chloro-phenyl)-cyclobutyl]-1,2,3,4-tetrahydro-isoquinolin-7-yloxy}-ethyl)-amide hydrochloride] | ≥ 6.00 |  | 
Cn1cnc(S(=O)(=O)NCCOc2ccc3c(c2)C(C2(c4ccc(Cl)cc4)CCC2)NCC3)c1 (stereo not shown) [Example 51, 1-(1-(4-Chlorophenyl)cyclobutyl)-7-(2-(1-methyl-1H-imidazole-4-sulfonamido)ethoxy)-1,2,3,4-tetrahydroisoquinolinium chloride] | ≥ 7.00 |  | 
O=S(=O)(NCCOc1ccc2c(c1)C(C1(c3ccc(Cl)cc3)CC1)NCC2)c1cccnc1 (stereo not shown) [Example 85, N-[2-({1-[1-(4-Chlorophenyl)cyclopropyl]-1,2,3,4-tetrahydroisoquinolin-7-yl}oxy)ethyl]pyridine-3-sulfonamide] | ≥ 7.00 |  | 
Cn1cc(S(=O)(=O)NCCOc2ccc3c(c2)C(C2(c4ccc(Cl)cc4)CC(F)(F)C2)NCC3)cn1 (stereo not shown) [Example 43, 1-Methyl-1H-pyrazole-4-sulfonic acid (2-{1-[1-(4-chloro-phenyl)-3,3-difluoro-cyclobutyl]-1,2,3,4-tetrahydro-isoquinolin-7-yloxy}-ethyl)-amidehydrochloride] | ≥ 7.00 |  | 
O=S(=O)(NCCOc1ccc2c(c1)C(C1(c3ccc(Cl)cc3)CCC1)NCC2)c1ccc(NCc2ccccc2)nc1 (stereo not shown) [Example 58, 6-(Benzylamino)-N-(2-(1-(1-(4-chlorophenyl)cyclobutyl)-1,2,3,4-tetrahydroisoquinolin-7-yloxy)ethyl)pyridine-3-sulfonamide hydrochloride] | ≥ 6.00 |  | 
CCCS(=O)(=O)NCCOc1ccc2c(c1)C(C(c1ccc(Cl)cc1)C(C)C)NCC2 (stereo not shown) [Example 60, dihydrochloride] | ≥ 5.00 |  | 
CCCNC(=O)NCCOc1ccc2c(c1)C(C1(c3ccc(Cl)cc3)CCC1)NCC2 (stereo not shown) [Example 33, 1-(2-{1-[1-(4-Chloro-phenyl)-cyclobutyl]-1,2,3,4-tetrahydro-isoquinolin-7-yloxy}-ethyl)-3-propyl-urea hydrochloride] | ≥ 5.00 |  | 
CCCS(=O)(=O)NCCOc1ccc2c(c1)C(C1(c3ccc(Cl)cc3)CC(F)(F)C1)NCC2 (stereo not shown) [Example 44, Propane-1-sulfonic acid (2-{1-[1-(4-chloro-phenyl)-3,3-difluoro-cyclobutyl]-1,2,3,4-tetrahydro-isoquinolin-7-yloxy}-ethyl)-amide hydrochloride] | ≥ 7.00 |  | 
Cn1cc(S(=O)(=O)NCCOc2ccc3c(c2)C(C2(c4ccc(Cl)cc4)CCC2)NCC3)cn1 (stereo not shown) [Example 37, 1-Methyl-1H-pyrazole-4-sulfonic acid (2-{1-[1-(4-chloro-phenyl)-cyclobutyl]-1,2,3,4-tetrahydro-isoquinolin-7-yloxy}-ethyl)-amide hydrochloride] | ≥ 7.00 |  | 
O=C(NCCOc1ccc2c(c1)C(C1(c3ccc(Cl)cc3)CCC1)NCC2)Nc1cccnc1 (stereo not shown) [Example 42, 1-(2-{1-[1-(4-Chloro-phenyl)-cyclobutyl]-1,2,3,4-tetrahydro-isoquinolin-7-yloxy}-ethyl)-3-pyridin-3-yl-urea hydrochloride] | ≥ 4.00 |  | 
CCCNS(=O)(=O)CCCOc1ccc2c(c1)C(C1(c3ccc(Cl)cc3)CCC1)NCC2 (stereo not shown) [Example 82, 3-({1-[1-(4-Chlorophenyl)cyclobutyl]-1,2,3,4-tetrahydroisoquinolin-7-yl}oxy)-N-propylpropane-1-sulfonamide hydrochloride] | ≥ 6.00 |  | 
CCCS(=O)(=O)NCCOc1ccc2c(c1)C(C1(c3cccc(Cl)c3)CCC1)N(CC#N)CC2 (stereo not shown) [Example 77, N-[2-({1-[1-(3-Chlorophenyl)cyclobutyl]-2-(cyanomethyl)-1,2,3,4-tetrahydroisoquinolin-7-yl}oxy)ethyl]propane-1-sulfonamide] | ≥ 6.00 |  | 
O=C(COc1ccc2c(c1)C(C1(c3ccc(Cl)cc3)CCC1)NCC2)N1CCNCC1 (stereo not shown) [Example 48, 2-{1-[1-(4-Chloro-phenyl)-cyclobutyl]-1,2,3,4-tetrahydro-isoquinolin-7-yloxy}-1-piperazin-1-yl-ethanone] | ≥ 5.00 |  | 

Second part, the molecule after the results:

pIC50 [1] | pKi ([2]; examples 88-204, radioligand not specified by footnote) | pKi ([2]; radioligand [3H]-(R)-NPTS (examples 1-19, 22-52, 54-87)) | SMILES
≥ 6.00 |  |  | CCN(CC)S(=O)(=O)NCCOc1ccc2c(c1)C(C1(c3ccc(Cl)cc3)CCC1)NCC2(C)C (stereo not shown) [Example 69, N′-[2-({1-[1-(4-Chlorophenyl)cyclobutyl]-4,4-dimethyl-1,2,3,4-tetrahydroisoquinolin-7-yl}oxy)ethyl]-N,N-diethylsulfuric diamide hydrochloride]
≥ 7.00 |  |  | Cn1cc(S(=O)(=O)NCCOc2ccc3c(c2)C(C2(c4ccc(Cl)cc4)CC2)NCC3)cn1 (stereo not shown) [Example 86, N-[2-({1-[1-(4-Chlorophenyl)cyclopropyl]-1,2,3,4-tetrahydroisoquinolin-7-yl}oxy)ethyl]-1-methyl-1H-pyrazole-4-sulfonamide]
≥ 5.00 |  |  | CC(=O)NCCOc1ccc2c(c1)C(C1(c3ccc(Cl)cc3)CCC1)NCC2 (stereo not shown) [Example 6, N-(2-{1-[1-(4-Chloro-phenyl)-cyclobutyl]-1,2,3,4-tetrahydro-isoquinolin-7-yloxy}-ethyl)-acetamide]
≥ 7.00 |  |  | CCCS(=O)(=O)NCCOc1ccc2c(c1)C(C1(c3ccc(Cl)cc3)CC1)NCC2 (stereo not shown) [Example 87, N-[2-({1-[1-(4-Chlorophenyl)cyclopropyl]-1,2,3,4-tetrahydroisoquinolin-7-yl}oxy)ethyl]propane-1-sulfonamide hydrochloride]
≥ 6.00 |  |  | CCCS(=O)(=O)NCCOc1ccc2c(c1)C(C1(c3ccc(F)cc3)CCC1)N(N)CC2 (stereo not shown) [Example 75, N-[2-({2-Amino-1-[1-(4-fluorophenyl)cyclobutyl]-1,2,3,4-tetrahydroisoquinolin-7-yl}oxy)ethyl]propane-1-sulfonamide]
≥ 7.00 |  |  | CCCS(=O)(=O)NCCOc1ccc2c(c1)C(C1(c3ccccc3)CCC1)NCC2 (stereo not shown) [Example 50, 1-(1-Phenylcyclobutyl)-7-(2-(propylsulfonamido)ethoxy)-1,2,3,4-tetrahydroisoquinolinium chloride]
≥ 5.00 |  |  | CCCS(=O)(=O)N1CCN(S(=O)(=O)NCCOc2ccc3c(c2)C(C2(c4ccc(Cl)cc4)CCC2)NCC3)CC1 (stereo not shown) [Example 56, N-(2-(1-(1-(4-Chlorophenyl)cyclobutyl)-1,2,3,4-tetrahydroisoquinolin-7-yloxy)ethyl)-4-(propylsulfonyl)piperazine-1-sulfonamide hydrochloride]
≥ 6.00 |  |  | CCCS(=O)(=O)NCCOc1ccc2c(c1)C(C1(c3ccc(F)cc3)CCC1)N(CC(F)(F)F)CC2 (stereo not shown) [Example 71, N-[2-({1-[1-(4-Fluorophenyl)cyclobutyl]-2-(2,2,2-trifluoroethyl)-1,2,3,4-tetrahydroisoquinolin-7-yl}oxy)ethyl]propane-1-sulfonamide hydrochloride]
≥ 5.00 |  |  | O=C(NCCOc1ccc2c(c1)C(C1(c3ccc(Cl)cc3)CCC1)NCC2)Nc1ccccc1 (stereo not shown) [Example 34, hydrochloride]
≥ 7.00 |  |  | CCCS(=O)(=O)NCCOc1ccc2c(c1)C(C1(c3ccc(Cl)cc3)CCC1)N(CC#N)CC2 (stereo not shown) [Example 80, N-[2-({1-[1-(4-cChlorophenyl)cyclobutyl]-2-(cyanomethyl)-1,2,3,4-tetrahydroisoquinolin-7-yl}oxy)ethyl]propane-1-sulfonamide hydrochloride]
≥ 7.00 |  |  | CCCS(=O)(=O)NCCOc1ccc2c(c1)C(C1(c3cccc(Cl)c3)CCC1)NCC2 (stereo not shown) [Example 49, Propane-1-sulfonic acid (2-{1-[1-(3-chloro-phenyl)-cyclobutyl]-1,2,3,4-tetrahydroisoquinolin-7-yloxy}-ethyl)-amide]
≥ 6.00 |  |  | CCCS(=O)(=O)NCCOc1ccc2c(c1)C(C1(c3ccc(Cl)cc3)CCC1)N(C(=N)NC#N)CC2 (stereo not shown) [Example 46, 1-(1-(4-Chlorophenyl)cyclobutyl)-N-cyano-7-(2-(propylsulfonamido)ethoxy)-3,4-dihydroisoquinoline-2(1H)-carboximidamide]
